In patent publication US11013746B2, “Drug for preventing and/or treating polycystic kidney disease” (OTSUKA PHARMACEUTICAL CO., LTD., priority 2012, dated 2021):

Test system: pcy mice
Assay: Effect of tolvaptan and octreotide, alone or combined, on kidney weight of pcy mice (PKD model animals)
Type: in vivo
Details: male pcy mice, 0.03% tolvaptan in feed and/or octreotide 300 μg/kg × 2/day sc; for kidney weight suppressive effect compared to the pcy control group: 15 weeks of age, Dunnett's test; for Kidney weight (% body weight) Mean ± SE: 15 weeks old at autopsy, treated from 5 to 15 weeks of age, pcy control 8.02 ± 0.66, normal DBA 1.53 ± 0.04
Experimental: Individual or combined effects of tolvaptan, which is a vasopressin receptor antagonist, and octreotide, which is a somatostatin analogue, against polycystic kidney disease were evaluated using pcy mice, which are PKD model animals.
The aforementioned pcy mice are adult polycystic kidney disease model mice, and the mode of inheritance is autosomal recessive. […] It has been reported that compared to wild-type mice, pcy mice have increased renal cAMP levels and elevated renal mRNA levels of aquaporin-2 and vasopressin V2 receptor (V2R). For details, see Non-patent Literature (NPL) 1.
Based on the body weight at 4 weeks of age and the renal volume measured by MRI, the pcy mice (male) were divided into the following four groups (each group: 9 mice):
(2) a group receiving a feed containing 0.03% tolvaptan;
(3) a group receiving octreotide (300 μg/kg×2/day sc); and
(4) a group receiving a feed containing 0.03% tolvaptan, and octreotide (300 μg/kg×2/day sc).
As normal control mice, DBA/2JJcl mice (5 mice) were used. A 0.03% tolvaptan-containing MF feed was given to the groups receiving tolvaptan. A MF feed not containing tolvaptan was given to the other groups, i.e., the control group and the group receiving octreotide alone. Sandostatin® subcutaneous injection (100 μg/ml) was diluted with physiological saline and subcutaneously injected in an amount of 300 μg/kg/10 ml to the group receiving octreotide twice a day, morning and evening.
The drug treatment was started from 5 weeks of age, and continued until 15 weeks of age. Urine was collected from each mouse at 14 weeks of age using metabolic cages for 19 hours, and urine volume and urinary albumin excretion were measured.
The DBA control mice and pcy mice were sacrificed under isoflurane anesthesia at 15 weeks of age to collect their blood, and right and left kidneys. Plasma parameters were measured from the obtained blood, and the weight of right and left kidneys was measured.

Compound | kidney weight suppressive effect compared to the pcy control group | Kidney weight (% body weight) Mean ± SE [% body weight]
(−)-D-phenylalanyl-L-cysteinyl-L-phenylalanyl-D-tryptophyl-L-lysyl-L-threonyl-N-[(1R,2R)-2-hydroxy-1-(hydroxymethyl)propyl]-L-cysteinamide cyclic (2-47) disulfide [octreotide] | did not exhibit significant kidney weight suppressive effects | 6.68 ± 0.65
Cc1ccccc1C(=O)Nc1ccc(C(=O)N2CCCC(O)c3cc(Cl)ccc32)c(C)c1 (stereo not shown) [tolvaptan, 7-chloro-5-hydroxy-1-[2-methyl-4-(2-methylbenzoylamino)benzoyl]-2,3,4,5-tetrahydro-1H-benzoazepine] | did not exhibit significant kidney weight suppressive effects | 7.28 ± 0.84
